Reference: patent US6586369B1, “Fungicidal agents containing pyrrolidones as their active agents and use thereof for treating plants” (BASF Aktiengesellschaft, priority 2000, dated 2003)

Key:
harmful fungi = test: Fungicidal activity, general statement, no test named; conditions: no test conditions given

melting point | SMILES | fungicidal activity (in words) (harmful fungi)
148 to 149 °C | O=C1C(Br)=C(c2ccccc2)C(=O)N1Nc1ccccc1 [No. 486, 1-Anilino-3-bromo-4-phenylpyrrol-2,5-dione] | –
178 to 180 °C | C[S+]([O-])C1=C(c2ccccc2)C(=O)N(Nc2ccccc2)C1=O (stereo not shown) [No. 1042, 1-Anilino-3-methylsulfinyl-4-phenylpyrrol-2,5-dione] | –

SMILES | melting point | fungicidal activity (in words) (harmful fungi)
O=C1C(Cl)=C(c2ccccc2)C(=O)N1Nc1ccccc1 [No. 1, 1-Anilino-3-chloro-4-phenylpyrrol-2,5-dione] | 143 to 145 °C | excellent fungicidal activity
